Measured values taken from ChEMBL document CHEMBL4382204 (Eur J Med Chem, 2018).
Active and inactive are the calls of the source. No cut-off for these calls is given here.

What was measured:
[1] = Antiproliferative activity in mouse BAF3 cells after 72 hrs by CCK8 assay; type: cell-based
[2] = tested on: Bcr/Abl fusion protein (Homo sapiens), P00519+P11274 [F317I]; conditions: BaF3
[3] = MRT (0 to t) in mouse at 10 mg/kg, po by LC-MS/MS analysis; type: ADME, organism-based; conditions: in vivo
[4] = tested on: Bcr/Abl fusion protein (Homo sapiens), P00519+P11274 [F317L]; conditions: BaF3
BaF3 [5] = assay: Antitumor activity against mouse BAF3 cells expressing BCR/ABL T315I mutant allografted in po dosed nu/nu mouse assessed as tumor growth inhibition administered daily via gavage for 13 days; type: functional, organism-based
[6] = Half life in mouse at 10 mg/kg, po by LC-MS/MS analysis; type: ADME, organism-based; conditions: in vivo
[7] = target: T1, Bcr/Abl fusion protein (Homo sapiens) (UniProt P00519+P11274); assay: Inhibition of BCR/ABL in human MEG01 cells assessed as inhibition of STAT5 phosphorylation up to 0.3 uM after 1 hr by immunoblotting analysis; type: cell-based
[8] = target: Vascular endothelial growth factor receptor 2 (Homo sapiens) (UniProt P35968); assay: Inhibition of wild type C-terminal FLAG-tagged human TEL fused VEGFR2 (unknown origin) transfected in mouse BAF3 cells assessed as growth inhibition after 72 hrs by CCK8 assay; type: cell-based
KU812 cell line [9] = assay: Cell cycle arrest in human KU812 cells assessed as accumulation at G0/G1 phase up to 0.3 uM after 24 hrs by propidium iodide/RNase staining based flow cytometric analysis; type: functional
Bcr/Abl fusion protein [10] = target: Bcr/Abl fusion protein (Homo sapiens, UniProt P00519); assay: (§1) Inhibition of BCR/ABL in human KU812 cells assessed as inhibition of BCR/ABL autophosphorylation at Y245 site after 1 hr by immunoblotting analysis; type: cell-based
[11] = target: T1, Bcr/Abl fusion protein (Homo sapiens); assay: as §1; type: cell-based
[12] = target: Mast/stem cell growth factor receptor Kit (Homo sapiens) (UniProt P10721); assay: Inhibition of wild type C-terminal FLAG-tagged human TEL fused cKIT (unknown origin) transfected in mouse BAF3 cells assessed as growth inhibition after 72 hrs by CCK8 assay; type: cell-based
[13] = Half life in mouse at 1 mg/kg, iv by LC-MS/MS analysis; type: ADME, organism-based; conditions: in vivo
[14] = Apparent volume of distribution during terminal phase in mouse at 10 mg/kg, po by LC-MS/MS analysis; type: ADME, organism-based; conditions: in vivo
[15] = AUC (0 to infinity) in Sprague-Dawley rat at 10 mg/kg, po by LC-MS/MS analysis; type: ADME, organism-based; design: dose 10 mg/kg, time infinity, route oral; conditions: in vivo
[16] = Apparent clearance during terminal phase in Sprague-Dawley rat at 1 mg/kg, iv by LC-MS/MS analysis; type: ADME, organism-based; conditions: in vivo
HL-60 = assay: Antiproliferative activity in human HL60 cells after 72 hrs by CCK8 assay; type: functional; conditions: HL-60, 72 h
[17] = target: T1, Bcr/Abl fusion protein (Homo sapiens); assay: Inhibition of BCR/ABL in human K562 cells assessed as inhibition of ErK phosphorylation up to 0.3 uM after 1 hr by immunoblotting analysis; type: cell-based
[18] = tested on: Bcr/Abl fusion protein (Homo sapiens), P00519+P11274 [Y253F]; conditions: BaF3
[19] = Antiproliferative activity in CHO cells after 72 hrs by CCK8 assay; type: cell-based, Cricetulus griseus; conditions: chinese hamster
[20] = AUC (0 to infinity) in Sprague-Dawley rat at 1 mg/kg, iv by LC-MS/MS analysis; type: ADME, organism-based; design: dose 1 mg/kg, time infinity, route intravenous; conditions: in vivo
[21] = AUC (0 to t) in mouse at 1 mg/kg, iv by LC-MS/MS analysis; type: ADME, organism-based; conditions: in vivo
Bcr/Abl fusion protein [22] = target: Bcr/Abl fusion protein (Homo sapiens, UniProt P00519, T315I); assay: Inhibition of BCR/ABL T315I mutant (unknown origin) expressed in mouse BAF3 cells assessed as inhibition of CrkL phosphorylation after 1 hr by immunoblotting analysis; type: cell-based
[23] = tested on: Bcr/Abl fusion protein (Homo sapiens), P00519+P11274 [V299L]; conditions: BaF3
[24] = Cmax in Sprague-Dawley rat at 10 mg/kg, po by LC-MS/MS analysis; type: ADME, organism-based; design: dose 10 mg/kg, route oral; conditions: in vivo
[25] = target: Tyrosine-protein kinase ABL1 (Homo sapiens, UniProt P00519, T315I); assay: Inhibition of active wild type His-tagged ABL T315I mutant (229 to 500 residues) (unknown origin) expressed in baculovirus infected sf9 cells using ABLtide as substrate after 1 hr by ADP-Glo assay
K562 = assay: Induction of apoptosis in human K562 cells assessed as cleaved PARP level up to 0.3 uM after 24 hrs by immunoblotting analysis; type: functional, cell-based
[26] = target: Discoidin domain-containing receptor 2 (Homo sapiens) (UniProt Q16832); assay: Inhibition of BCR fused DDR2 (unknown origin) transfected in mouse BAF3 cells assessed as growth inhibition after 72 hrs by CCK8 assay; type: cell-based
MEC1 = assay: Antiproliferative activity in human MEC1 cells after 72 hrs by CCK8 assay; type: functional; conditions: MEC1, 72 h
[27] = target: Epithelial discoidin domain-containing receptor 1 (Homo sapiens) (UniProt Q08345); assay: Inhibition of wild type C-terminal FLAG-tagged human TEL fused DDR1 (unknown origin) transfected in mouse BAF3 cells assessed as growth inhibition after 72 hrs by CCK8 assay; type: cell-based
[28] = target: Macrophage colony-stimulating factor 1 receptor (Homo sapiens) (UniProt P07333); assay: Inhibition of wild type C-terminal FLAG-tagged human TEL fused CSF1R (unknown origin) transfected in mouse BAF3 cells assessed as growth inhibition after 72 hrs by CCK8 assay; type: cell-based
[29] = Cmax in mouse at 1 mg/kg, iv by LC-MS/MS analysis; type: ADME, organism-based; design: dose 1 mg/kg, route intravenous; conditions: in vivo
[30] = target: T1, Bcr/Abl fusion protein (Homo sapiens); assay: Inhibition of BCR/ABL in human MEG01 cells assessed as inhibition of ErK phosphorylation up to 0.3 uM after 1 hr by immunoblotting analysis; type: cell-based
[31] = target: Fibroblast growth factor receptor 2 (Homo sapiens) (UniProt P21802); assay: Inhibition of wild type C-terminal FLAG-tagged human TEL fused FGFR2 (unknown origin) transfected in mouse BAF3 cells assessed as growth inhibition after 72 hrs by CCK8 assay; type: cell-based
[32] = Selectivity ratio of GI50 for mouse BAF3 cells to GI50 for BCR/ABL T315I mutant (unknown origin) transfected in mouse BAF3 cells
KU812 cell line [33] = assay: Induction of apoptosis in human KU812 cells assessed as cleaved PARP level up to 0.3 uM after 24 hrs by immunoblotting analysis; type: functional, cell-based
BaF3 [34] = assay: Induction of apoptosis in mouse BAF3 cells expressing BCR/ABL T315I mutant assessed as cleaved PARP level up to 0.3 uM after 24 hrs by immunoblotting analysis; type: functional, cell-based
[35] = Apparent clearance during terminal phase in mouse at 1 mg/kg, iv by LC-MS/MS analysis; type: ADME, organism-based; conditions: in vivo
MEG-01 = assay: Antiproliferative activity in human MEG01 cells after 72 hrs by CCK8 assay; type: functional; conditions: MEG-01, 72 h

Sequence of Mast/stem cell growth factor receptor Kit (Homo sapiens) (P10721 whole entry, the tested form may be a part): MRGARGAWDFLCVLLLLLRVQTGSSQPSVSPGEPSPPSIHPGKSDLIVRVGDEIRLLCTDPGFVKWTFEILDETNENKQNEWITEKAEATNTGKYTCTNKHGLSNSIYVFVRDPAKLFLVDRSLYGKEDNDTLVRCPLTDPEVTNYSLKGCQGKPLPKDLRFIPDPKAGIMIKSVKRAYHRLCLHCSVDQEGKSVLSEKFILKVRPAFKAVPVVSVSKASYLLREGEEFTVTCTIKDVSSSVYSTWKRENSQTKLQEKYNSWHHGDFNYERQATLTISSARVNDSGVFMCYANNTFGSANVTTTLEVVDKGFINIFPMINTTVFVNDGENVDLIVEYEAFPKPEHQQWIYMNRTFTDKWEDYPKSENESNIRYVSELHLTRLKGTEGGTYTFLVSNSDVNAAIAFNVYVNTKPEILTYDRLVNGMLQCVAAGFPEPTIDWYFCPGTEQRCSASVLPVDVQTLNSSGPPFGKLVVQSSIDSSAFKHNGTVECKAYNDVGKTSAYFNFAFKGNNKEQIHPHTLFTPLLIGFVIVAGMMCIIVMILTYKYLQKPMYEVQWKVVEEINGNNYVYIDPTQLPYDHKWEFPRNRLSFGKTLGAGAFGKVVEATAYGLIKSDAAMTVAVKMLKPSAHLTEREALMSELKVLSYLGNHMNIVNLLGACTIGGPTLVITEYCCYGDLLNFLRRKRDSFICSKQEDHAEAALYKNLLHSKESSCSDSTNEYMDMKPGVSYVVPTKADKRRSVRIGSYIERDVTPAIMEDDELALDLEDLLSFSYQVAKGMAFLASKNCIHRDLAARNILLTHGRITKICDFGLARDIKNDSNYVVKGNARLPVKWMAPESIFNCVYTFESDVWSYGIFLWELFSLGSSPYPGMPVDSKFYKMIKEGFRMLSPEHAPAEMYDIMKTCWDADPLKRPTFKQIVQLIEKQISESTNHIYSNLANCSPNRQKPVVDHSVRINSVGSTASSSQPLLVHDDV
Sequence of Macrophage colony-stimulating factor 1 receptor (Homo sapiens) (P07333 whole entry, the tested form may be a part): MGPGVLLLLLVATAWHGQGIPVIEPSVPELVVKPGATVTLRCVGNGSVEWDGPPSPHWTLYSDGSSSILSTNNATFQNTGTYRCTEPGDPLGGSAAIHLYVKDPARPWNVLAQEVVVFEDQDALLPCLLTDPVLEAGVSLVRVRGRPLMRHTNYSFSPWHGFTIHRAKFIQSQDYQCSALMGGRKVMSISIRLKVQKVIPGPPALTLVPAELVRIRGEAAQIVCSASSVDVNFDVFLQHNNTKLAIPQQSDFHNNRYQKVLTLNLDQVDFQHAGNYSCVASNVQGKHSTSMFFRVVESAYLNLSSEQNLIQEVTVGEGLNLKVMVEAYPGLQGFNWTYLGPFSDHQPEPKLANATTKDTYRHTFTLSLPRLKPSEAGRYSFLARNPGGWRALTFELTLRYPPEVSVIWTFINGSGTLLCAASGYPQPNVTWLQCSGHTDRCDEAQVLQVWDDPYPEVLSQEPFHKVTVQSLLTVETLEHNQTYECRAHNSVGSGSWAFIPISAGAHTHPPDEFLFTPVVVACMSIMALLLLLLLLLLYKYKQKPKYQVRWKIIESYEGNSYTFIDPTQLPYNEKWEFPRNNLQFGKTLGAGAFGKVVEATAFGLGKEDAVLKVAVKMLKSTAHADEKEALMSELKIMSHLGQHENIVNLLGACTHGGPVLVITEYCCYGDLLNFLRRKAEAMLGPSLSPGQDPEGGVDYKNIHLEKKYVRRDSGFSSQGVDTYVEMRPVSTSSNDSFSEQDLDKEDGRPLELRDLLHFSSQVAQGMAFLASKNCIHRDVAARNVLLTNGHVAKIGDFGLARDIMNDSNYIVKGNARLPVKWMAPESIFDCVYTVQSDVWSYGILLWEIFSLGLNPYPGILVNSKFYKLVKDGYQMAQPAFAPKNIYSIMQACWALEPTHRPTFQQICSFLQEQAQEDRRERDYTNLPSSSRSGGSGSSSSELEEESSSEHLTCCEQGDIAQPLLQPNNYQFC
Sequence of Discoidin domain-containing receptor 2 (Homo sapiens) (Q16832 whole entry, the tested form may be a part): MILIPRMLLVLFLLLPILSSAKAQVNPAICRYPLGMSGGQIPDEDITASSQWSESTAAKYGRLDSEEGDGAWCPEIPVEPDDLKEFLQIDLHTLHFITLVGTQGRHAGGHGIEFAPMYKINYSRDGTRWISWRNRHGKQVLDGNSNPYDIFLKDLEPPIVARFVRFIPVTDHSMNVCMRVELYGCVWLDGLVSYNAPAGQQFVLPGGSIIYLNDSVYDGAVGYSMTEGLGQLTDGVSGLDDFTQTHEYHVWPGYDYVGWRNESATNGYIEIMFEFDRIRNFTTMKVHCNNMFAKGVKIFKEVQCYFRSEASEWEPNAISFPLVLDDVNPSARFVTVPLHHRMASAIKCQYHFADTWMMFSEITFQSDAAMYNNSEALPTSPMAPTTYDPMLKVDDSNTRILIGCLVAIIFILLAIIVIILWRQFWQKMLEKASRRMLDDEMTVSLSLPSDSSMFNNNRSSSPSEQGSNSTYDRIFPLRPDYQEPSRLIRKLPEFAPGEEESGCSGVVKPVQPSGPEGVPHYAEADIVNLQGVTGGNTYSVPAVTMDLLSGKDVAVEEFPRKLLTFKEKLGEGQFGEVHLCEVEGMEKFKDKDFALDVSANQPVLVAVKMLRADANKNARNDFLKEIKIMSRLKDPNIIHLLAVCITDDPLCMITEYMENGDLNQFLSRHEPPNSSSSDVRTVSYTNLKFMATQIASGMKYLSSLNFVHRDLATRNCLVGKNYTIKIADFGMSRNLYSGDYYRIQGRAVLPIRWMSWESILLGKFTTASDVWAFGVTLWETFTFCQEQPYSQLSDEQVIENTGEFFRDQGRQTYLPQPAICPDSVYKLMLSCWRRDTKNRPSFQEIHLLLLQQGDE
Sequence of Vascular endothelial growth factor receptor 2 (Homo sapiens) (P35968 whole entry, the tested form may be a part): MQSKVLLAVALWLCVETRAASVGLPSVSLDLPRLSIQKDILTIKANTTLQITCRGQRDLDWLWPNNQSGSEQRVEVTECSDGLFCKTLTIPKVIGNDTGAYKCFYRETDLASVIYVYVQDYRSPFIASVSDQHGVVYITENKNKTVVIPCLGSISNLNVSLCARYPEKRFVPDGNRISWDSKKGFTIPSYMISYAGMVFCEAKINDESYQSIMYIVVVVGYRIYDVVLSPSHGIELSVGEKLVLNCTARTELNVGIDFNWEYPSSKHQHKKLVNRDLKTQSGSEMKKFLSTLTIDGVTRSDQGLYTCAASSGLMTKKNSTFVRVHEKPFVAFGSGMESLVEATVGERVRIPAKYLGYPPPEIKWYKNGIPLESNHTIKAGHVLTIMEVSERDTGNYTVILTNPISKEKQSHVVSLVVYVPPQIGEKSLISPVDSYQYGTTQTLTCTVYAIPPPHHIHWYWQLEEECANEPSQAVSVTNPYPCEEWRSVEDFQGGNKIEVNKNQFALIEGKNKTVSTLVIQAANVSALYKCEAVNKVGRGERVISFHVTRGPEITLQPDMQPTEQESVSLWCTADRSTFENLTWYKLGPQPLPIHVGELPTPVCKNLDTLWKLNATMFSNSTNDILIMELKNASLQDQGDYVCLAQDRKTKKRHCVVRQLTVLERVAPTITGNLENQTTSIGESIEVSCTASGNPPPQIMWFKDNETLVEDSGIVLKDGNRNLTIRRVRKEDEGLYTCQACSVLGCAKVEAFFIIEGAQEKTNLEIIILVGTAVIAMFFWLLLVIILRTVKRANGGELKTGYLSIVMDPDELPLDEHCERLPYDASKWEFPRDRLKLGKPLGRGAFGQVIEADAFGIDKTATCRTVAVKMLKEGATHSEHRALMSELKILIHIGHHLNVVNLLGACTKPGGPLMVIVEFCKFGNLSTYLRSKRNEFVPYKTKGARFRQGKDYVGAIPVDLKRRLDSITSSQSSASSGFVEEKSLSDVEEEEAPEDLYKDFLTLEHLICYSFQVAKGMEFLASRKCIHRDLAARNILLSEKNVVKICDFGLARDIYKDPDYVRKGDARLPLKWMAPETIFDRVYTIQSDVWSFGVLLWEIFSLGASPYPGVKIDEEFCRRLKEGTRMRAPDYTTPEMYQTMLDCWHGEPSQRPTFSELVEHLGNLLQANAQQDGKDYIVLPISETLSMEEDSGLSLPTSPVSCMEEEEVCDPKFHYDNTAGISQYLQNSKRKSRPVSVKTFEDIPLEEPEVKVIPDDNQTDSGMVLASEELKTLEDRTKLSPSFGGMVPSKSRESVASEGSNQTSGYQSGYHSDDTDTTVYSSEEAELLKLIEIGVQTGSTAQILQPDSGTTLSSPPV
Sequence of Epithelial discoidin domain-containing receptor 1 (Homo sapiens) (Q08345 whole entry, the tested form may be a part): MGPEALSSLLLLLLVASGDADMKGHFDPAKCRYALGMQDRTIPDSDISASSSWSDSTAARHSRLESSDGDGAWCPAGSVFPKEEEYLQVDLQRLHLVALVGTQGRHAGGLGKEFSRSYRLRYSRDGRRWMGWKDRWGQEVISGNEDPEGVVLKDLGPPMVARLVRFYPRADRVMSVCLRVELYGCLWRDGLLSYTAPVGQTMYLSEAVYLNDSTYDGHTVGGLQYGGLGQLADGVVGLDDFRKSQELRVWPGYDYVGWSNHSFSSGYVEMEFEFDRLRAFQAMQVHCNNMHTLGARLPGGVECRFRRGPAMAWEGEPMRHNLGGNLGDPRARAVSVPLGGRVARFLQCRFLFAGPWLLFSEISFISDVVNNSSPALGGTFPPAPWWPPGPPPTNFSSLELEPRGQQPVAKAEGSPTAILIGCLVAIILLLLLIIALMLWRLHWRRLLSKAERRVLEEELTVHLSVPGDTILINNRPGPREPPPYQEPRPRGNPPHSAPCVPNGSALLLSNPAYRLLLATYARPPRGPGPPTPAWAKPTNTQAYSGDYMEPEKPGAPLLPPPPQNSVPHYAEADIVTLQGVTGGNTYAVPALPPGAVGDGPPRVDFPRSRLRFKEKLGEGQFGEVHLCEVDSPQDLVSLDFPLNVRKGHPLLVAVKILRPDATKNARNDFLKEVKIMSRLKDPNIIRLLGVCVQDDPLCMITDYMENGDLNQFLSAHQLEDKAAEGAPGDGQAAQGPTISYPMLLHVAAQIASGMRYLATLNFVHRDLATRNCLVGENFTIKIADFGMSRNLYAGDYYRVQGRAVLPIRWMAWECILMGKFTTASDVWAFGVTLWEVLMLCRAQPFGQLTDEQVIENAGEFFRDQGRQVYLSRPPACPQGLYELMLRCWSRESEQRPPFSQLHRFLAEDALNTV

**Q.** Which GI50 at 72 h [1] does the source give for `CN1CCN(Cc2ccc(NC(=O)CCSc3ccc4c(/C=C/c5ccccn5)n[nH]c4c3)cc2C(F)(F)F)CC1` here?
**A.** 2.48 µM

**Q.** And the GI50 [2]?
**A.** 0.025 µM

**Q.** And the MRT last [3]?
**A.** 3.3 h

**Q.** And the GI50 [4]?
**A.** 0.018 µM

**Q.** And the TGI (BaF3 [5])?
**A.** Dose-dependent effect

**Q.** What about the half-life [6] of the same compound?
**A.** 2 h

**Q.** And the inhibition [7]?
**A.** Active

**Q.** And the GI50 [8]?
**A.** 0.002 µM

**Q.** And the Activity (KU812 cell line [9])?
**A.** Active

**Q.** What about the EC50 (Bcr/Abl fusion protein [10]) of the same compound?
**A.** < 0.03 µM

**Q.** What about the inhibition [11] of the same compound?
**A.** Dose-dependent effect

**Q.** And the GI50 [12]?
**A.** 0.033 µM

**Q.** And the half-life [13]?
**A.** 5 h

**Q.** What about the Vz [14] of the same compound?
**A.** 124.9 L/kg

**Q.** What about the AUC(0-inf) [15] of the same compound?
**A.** 266 ng·h/mL

**Q.** And the CLz/F [16]?
**A.** 85 mL/min/kg

**Q.** And the GI50 (HL-60)?
**A.** 0.87 µM

**Q.** What about the inhibition [17] of the same compound?
**A.** Active

**Q.** What about the GI50 [18] of the same compound?
**A.** 0.18 µM

**Q.** What about the GI50 at 72 h [19] of the same compound?
**A.** 1.12 µM

**Q.** What about the AUC(0-inf) [20] of the same compound?
**A.** 202 ng·h/mL

**Q.** What about the AUC(0-t) [21] of the same compound?
**A.** 148 ng·h/mL

**Q.** And the EC50 (Bcr/Abl fusion protein [22])?
**A.** < 0.01 µM

**Q.** And the GI50 [23]?
**A.** 0.103 µM

**Q.** And the Cmax [24]?
**A.** 48.6 ng/mL

**Q.** And the IC50 [25]?
**A.** 0.0002 µM

**Q.** And the Activity (K562)?
**A.** Active

**Q.** What about the GI50 [26] of the same compound?
**A.** 1.54 µM

**Q.** What about the GI50 (MEC1) of the same compound?
**A.** 0.5 µM

**Q.** What about the GI50 [27] of the same compound?
**A.** 1.36 µM

**Q.** And the GI50 [28]?
**A.** < 0.001 µM

**Q.** What about the Cmax [29] of the same compound?
**A.** 525 ng/mL

**Q.** What about the inhibition [30] of the same compound?
**A.** Active

**Q.** What about the GI50 [31] of the same compound?
**A.** 0.036 µM

**Q.** What about the RatioGI50 [32] of the same compound?
**A.** 400

**Q.** And the Activity (KU812 cell line [33])?
**A.** Active

**Q.** And the Activity (BaF3 [34])?
**A.** Active

**Q.** What about the CLz/F [35] of the same compound?
**A.** 103 mL/min/kg

**Q.** What about the GI50 (MEG-01) of the same compound?
**A.** 0.001 µM
